Test results reported in US20220317132A1, “USE OF ENDOTHELIN RECEPTOR INHIBITOR FOR INHIBITING EXOSOME SECRETION OR INHIBITING PD-L1 EXPRESSION” (KYUNGPOOK NATIONAL UNIVERSITY INDUSTRY-ACADEMIC COOPERATION …, priority 2019, published 2022).

Tested on: MDA-MB231 cells
Test: Cytotoxic effect (MTT analysis)
Conditions: 24 hours, sulfisoxazole 100 μM, ambrisentan 1, 10, 100 μM, macitentan 100, 1000 nM, bosentan 10, 50 μM, FIG. 1
Experimental: MCF10A cells were cultured in Mammary epithelial cell growth medium (MEGM, Lonza) added with 5% fetal bovine serum, 1% antibiotics, 52 μg/ml bovine pituitary extract, 0.5 μg/ml hydrocortisone, 10 ng/ml EGF, and 5 μg/ml insulin. MDA-MB231 and MCF7 cells were cultured in Dulbecco's modified Eagle's medium (DMEM, Hyclone) added with 10% fetal bovine serum and 1% antibiotics.
MDA-MB231 cells were seeded at 1×10^5/well in a 24-well plate, and then cultured for 24 hours to allow time for cell stabilization. After culturing for 24 hours, the cells were treated with 100 μM of sulfisoxazole, 1, 10, and 100 μM of ambrisentan, 100 and 1000 nM of macitentan, and 10 and 50 μM of bosentan and cultured for 24 hours. Then, after treatment with MTT tetrazolium reagent, the cells were cultured for 4 hours. After 4 hours, reduced MTT formazan (3-(4,5-dimethylthiazol-2-yl)-2,5 diphenyl-tetrazolium bromide) was measured at 595 nm absorbance to confirm cell proliferation effects.

Row | SMILES | cytotoxicity (MTT, absorbance 595 nm)
1 | COc1ccccc1Oc1c(NS(=O)(=O)c2ccc(C(C)(C)C)cc2)nc(-c2ncccn2)nc1OCCO [bosentan] | no cytotoxicity
2 | Cc1noc(NS(=O)(=O)c2ccc(N)cc2)c1C [sulfisoxazole] | no cytotoxicity
